EP4563579A1, “MACROCYCLIC EGFR INHIBITOR, AND PREPARATION METHOD THEREFOR AND PHARMACEUTICAL USE THEREOF” (Abbisko Therapeutics Co., Ltd., priority 2022, dated 2024)

Columns and labels:
[1] = tested on: Ba/F3 EGFR-L858R-C797S (LC); assay: Cell proliferation assay (CellTiter-Glo), Ba/F3 LC; assay type: cell-based; settings: Mus musculus, BaF3; Ba/F3 EGFR-L858R-C797S cells, 72 hour incubation, CTG readout
How it was run: (§1)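 Cells seeded overnight, then exposed 72 h at 37 °C, 5% CO2 to nine 3.16-fold dilutions (top final 10 µM, 0.1% DMSO), triplicate wells. Viability read by CellTiter-Glo luminescence, with a T0 plate read at dosing; IC50 (nM) by non-linear sigmoidal regression.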

[2] = tested on: Ba/F3 EGFR-DEL19-T790M-C797S (DTC); assay: Cell proliferation assay (CellTiter-Glo), Ba/F3 DTC; assay type: cell-based; settings: Ba/F3 EGFR-DEL19-T790M-C797S cells, 72 hour incubation, CTG readout; read-out: IC50 BaF3 DTC
How it was run: as §1

[3] = tested on: Ba/F3 EGFR-L858R-T790M-C797S (LTC); assay: Cell proliferation assay (CellTiter-Glo), Ba/F3 LTC; assay type: cell-based; settings: Mus musculus, BaF3; Ba/F3 EGFR-L858R-T790M-C797S cells, 72 hour incubation, CTG readout
How it was run: as §1

[4] = tested on: Ba/F3 EGFR-DEL19-C797S (DC); assay: Cell proliferation assay (CellTiter-Glo), Ba/F3 DC; assay type: cell-based; settings: Mus musculus, BaF3; Ba/F3 EGFR-DEL19-C797S cells, 72 hour incubation, CTG readout
How it was run: as §1

[5] = Pharmacokinetic experiment in mice; assay type: in vivo; settings: male, mouse; ICR mice, single oral administration (PO), 10 mg/kg, plasma
Text: The purpose of this trial is to study the pharmacokinetic behavior of some compounds of the present invention, and the administration method is: Single oral administration (PO) to ICR mice.
The compounds used in this trial are from the compounds in the specific examples of the present invention and the listed positive compounds.
ICR mice male N=9 original source: Shanghai Sippr-Bk Lab Animal Co., Ltd.
The compounds are weighed and dissolved in the corresponding solution (10% PG + 10% Solutol® + 80% pH3 citrate buffer). The mixture is then shaken well and sonicated to prepare a 1 mg/mL stock solution. Nine mice are orally administered at a dose of 10 mg/kg (or IV 2 mg/kg) after an overnight fast.
About 90 µL of blood is collected via the submandibular vein per time point, heparin sodium anticoagulant is added, the sample is placed on ice after collection, and plasma is centrifuged within 1 hour (centrifugation conditions: 8,000 rpm, 6 minutes, 2-8°C). The blood collection timepoints are 0, 0.25, 0.5, 1, 2, 4, 6, 8 and 24 h. The samples are stored in a -20°C refrigerator.
The plasma sample is 40 µL, 160 µL of ice-cold acetonitrile containing internal standard is added, vortexed for 3 minutes, and centrifuged at 11,000 rpm for 5 minutes. 100 µL of the supernatant is taken and added to 100 µL of water, 5 µL of the sample is taken and injected into LC/MS/MS for analysis.

[6] = tested on: A431 WT; assay: Cell proliferation assay (CellTiter-Glo), A431 WT; assay type: cell-based; settings: Homo sapiens, A-431; A431 WT cells, 72 hour incubation, CTG readout
How it was run: as §1

| SMILES | IC50 [1] [nM] | IC50 [2] [nM] | IC50 [3] [nM] | IC50 [4] [nM] | AUC(0-t) [5] [ng·h/mL] | Cmax [5] [ng/mL] | half-life [5] [h] | IC50 [6] [nM] |
| --- | --- | --- | --- | --- | --- | --- | --- | --- |
| CCS(=O)(=O)C[C@@H]1CCN(c2nn3c4cc(ncc24)Nc2ccnc(n2)-c2cnn(C)c2OCC2(CCCC2)C3)C1 [Example 29, (R)-3' -(3-((ethylsulfonyl)methyl)pyrrolidin-1-yl)-1'-me thylspiro(cyclopentane-1,6' -8-oxa-3-aza-4(6,1)-pyrazolo[4,3-c]pyridina-2(2,4)-pyrimidina-1(4,5)-pyrazolacyclooctaphane)] | 9.6 | 1.8 | 4 | 1.6 | 4540 | 1400 | 0.66 | 622 |
| CCCS(=O)(=O)C[C@H]1CCN(c2nn3c4cc(ncc24)Nc2ccnc(n2)-c2cnn(C)c2OCC2(CCCC2)C3)C1 [Example 42, (S)-3'-(3-((propylsulfonyl)methyl)pyrrolidin-1-yl)-1'-methylspiro(cyclopentane-1 ,6'-8-oxa-3-aza-4(6,1)-pyrazolo[4,3-c]pyridina-2(2,4)-pyrimidina-1(4,5)-pyrazolacyclooctaphane)] | 1.9 | 2.3 | 1.2 | 3.5 | 4290 | 1060 | 3 | 593 |

More lines, in order of falling IC50 [1], values ahead:

| IC50 [1] [nM] | IC50 [2] [nM] | IC50 [3] [nM] | IC50 [4] [nM] | AUC(0-t) [5] [ng·h/mL] | Cmax [5] [ng/mL] | half-life [5] [h] | IC50 [6] [nM] | SMILES |
| --- | --- | --- | --- | --- | --- | --- | --- | --- |
| 30.6 | 6.8 | 10.4 | 19.4 | 3920 | 307 | 5.6 | 439 | CN1CCC(C#Cc2nn3c4cc(ncc24)Nc2ccnc(n2)-c2cnn(C)c2OCC2(CCCCC2)C3)CC1 [Example 3, 1'-methyl-3'-((1-methylpiperidin-4-yl)ethynyl)spiro(cyclohexane-1,6'-8-oxa-3-aza-4(6,1)-pyrazolo[4,3-c]pyridina-2(2,4)-pyrimidina-1(4,5)-pyrazolacyclooctaphane)] |
| 2.7 | 1.6 | 1.4 | 0.7 | 2390 | 694 | 4.7 | 375 | Cn1ncc2c1OCC1(CCCC1)Cn1nc(N3CC[C@H](CS(C)(=O)=O)C3)c3cnc(cc31)Nc1ccnc-2n1 [Example 34, (S)-1'methyl-3'-(3-((methylsulfonyl)methyl)pyrrolidin-1-yl)spiro(cyclopentane-1,6 '-8-oxa-3-aza-4(6,1)-pyrazolo[4,3-c]pyridina-2(2,4)-pyrimidina-1(4,5)-pyrazolacyclooctaphane)] |
| 2.1 | 1.5 | 0.8 | 2.3 | 6080 | 1560 | 3 | 446 | CC(C)S(=O)(=O)C[C@H]1CCN(c2nn3c4cc(ncc24)Nc2ccnc(n2)-c2cnn(C)c2OCC2(CCCC2)C3)C1 [Example 39, (S)-3'-(3-((isopropylsulfonyl)methyl)pyrrolidin-1-yl)-1' -methylspiro(cyclopentane-1,6'-8-oxa-3-aza-4(6,1)-pyrazolo[4,3-c]pyridina-2(2,4)-pyrimidina-1(4,5)-pyrazolacyclooctaphane)] |
